In patent publication US4839374A, “4-((Bicyclic heterocyclyl)-methyl and -hetero)-piperidines” (Janssen Pharmaceutica, N.V., priority 1987, dated 1989) one finds ED50 data, which are given here for 42 compounds.

In the test the test system is compound 48/80-induced lethality. In words: Protection of rats from compound 48/80-induced lethality. The settings on record: Rattus norvegicus, 4 h, read-out: Compound 48/80 lethality test in rats ED50, s.c. or p.o. 1 h before compound 48/80 0.5 mg/kg i.v.; protection of 50% of animals, survival after 4 hours. The class given is in vivo, rats of an inbred Wistar strain. On the procedure: Protection of rats from compound 48/80-induced lethality
The protection from compound 48/80-induced lethal circulatory collapse appears to be a simple way of evaluating quantitatively the antihistaminic activity of test compounds. Male rats of an inbred Wistar strain, weighing 240-260 g were used in the experiment. After overnight starvation the rats were transferred to conditioned laboratories (temp.=21±1° C., relative humidity=65+5%). The rats were treated subcutaneously or orally with a test compound or with the solvent (NaCl solution, 0.9%). […] Survival after 4 hours is therefore considered to be a safe criterion of a protective effect of drug administration. The ED50 -values of the compounds of formula (I) are listed in the first column of tables 1 to 4. Said ED50 -values are the values in mg/kg body weight at which the tested compounds protect 50% of the tested animals against compound 48/80-induced lethality. The compounds of formula (I) and the pharmaceutically acceptable acid addition salts thereof are also potent serotonin-antagonists. The potency of the subject compounds as serotonin-antagonists is clearly evidenced by the results obtained in the following tests wherein the antagonistic activity of the subject compounds on the effect of serotonin is examined.
With `Fc1ccc(Cn2c(CC3CCN(CCOCc4ccccn4)CC3)nc3cccnc32)cc1` [Compound 394, 3-[(4-fluorophenyl)methyl]-2-[[1-[2-(2-pyridinylmethoxy)ethyl]-4-piperidinyl]-methyl]-3H-imidazol[4,5-b]pyridine], the ED50 worked out at 0.02 mg/kg.
The value for `c1csc(Cn2c(CC3CCNCC3)nc3ccccc32)c1` [Compound 64, 2-(4-piperidinylmethyl)-1-(2-thienylmethyl)-1H-benzimidazole] was 0.04 mg/kg; that for `Cc1ccc(Cn2c(CC3CCN(CCNc4nccs4)CC3)nc3ccccc32)cc1` [Compound 364] was 0.04 mg/kg.
With `Cn1cnc([N+](=O)[O-])c1NCCN1CCC(Cc2nc3ccccc3n2Cc2ccc(F)cc2)CC1` [Compound 377, 4-[[1-[(4-fluorophenyl)methyl]-1H-benzimidazol-2-yl]methyl]-N-(1-methyl-4-nitro-1H-imidazol-5-yl)-1-piperidineethanamine], the ED50 was 0.16 mg/kg.
Turning to `c1coc(Cn2c(CC3CCN(CCNc4nc5cnccc5[nH]4)CC3)nc3cccnc32)c1` [Compound 417, N-[2-[4-[[3-(2-furanylmethyl)-3H-imidazo[4,5-b]pyridin-2-yl]methyl]-1-piperidinyl]ethyl]-1H-imidazo[4,5-c]pyridin-2-amine], the ED50 amounted to 0.04 mg/kg.
In the case of `Fc1ccc(Cn2c(SC3CCN(CCNc4ncccn4)CC3)nc3ccccc32)cc1` [Compound 333, N-[2-[4-[[1-[(4-fluorophenyl)methyl]-1H-benzimidazol-2-yl]thio]-1-piperidinyl]ethyl]-2-pyrimidinamine], the ED50 was 0.04 mg/kg.
Turning to `O=c1[nH]c2ccccc2c(=O)n1CCCCN1CCC(Cc2nc3cccnc3n2Cc2ccco2)CC1` [Compound 491, 3-[4-[4-[[3-(2-furanylmethyl)-3H-imidazo[4,5-b]pyridin-2-yl]methyl]-1-piperidinyl]butyl]-2,4-(1H,3H)-quinazolinedione], the ED50 worked out at 0.16 mg/kg.
`COc1ccc(CCN2CCC(Cc3nc4ccccc4n3Cc3cccs3)CC2)cc1` [Compound 232]: the ED50 amounted to 0.08 mg/kg.
The value for `Fc1ccc(Cn2c(CC3CCN(CCSc4ccccc4)CC3)nc3cccnc32)cc1` [Compound 147, 3-[(4-fluorophenyl)methyl]-2-[[1-[2-(phenylthio)ethyl]-4-piperidinyl]methyl]-3H-imidazo[4,5-b]pyridine] was 0.08 mg/kg; that for `N#CCN1CCC(Cc2nc3ccccc3n2Cc2ccccc2)CC1` [Compound 297] was 0.08 mg/kg; that for `O=c1oc2ccccc2cc1CCN1CCC(Cc2nc3ccccc3n2Cc2cscn2)CC1` [Compound 265] was 0.02 mg/kg.
Next, `Fc1ccc(Cn2c(CC3CCN(CCNc4ccncn4)CC3)nc3ccccc32)cc1` [Compound 501]: 0.04 mg/kg.
Regarding `O=c1c2ccccc2[nH]c(=S)n1CCN1CCC(Cc2nc3cccnc3n2Cc2ccc(F)cc2)CC1` [Compound 463, 3-[2-[4-[[3-[(4-fluorophenyl)methyl]-3H-imidazo[4,5-b]pyridin-2-yl]methyl]-1-piperidinyl]ethyl]-2,3-dihydro-2-thioxo-4(1H)quinazolinone], the ED50 was found to be 0.08 mg/kg.
In the case of `O=c1[nH]c2ccccc2n1CCCN1CCC(Oc2nc3ccccc3n2Cc2ccc(F)cc2)CC1` [Compound 140, 1-[3-[4-[[1-[(4-fluorophenyl)methyl]-1H-benzimidazol-2-yl]oxy]-1-piperidinyl]propyl]-1,3-dihydro-2H-benzimidazol-2-one], the ED50 turned out to be 0.04 mg/kg.
Regarding `Fc1ccc(Cn2c(CC3CCNCC3)nc3cccnc32)cc1` [Compound 45, 3-[(4-fluorophenyl)methyl]-2-(4-piperidinylmethyl)-3H-imidazo[4,5-b]-pyridine], the ED50 was 0.04 mg/kg.
Consider `O=c1[nH]c2ccccc2n1CCCN1CCC(Cc2nc3cccnc3n2Cc2cccs2)CC1` [Compound 215], for which the ED50 was found to be 0.08 mg/kg.
As to `COc1ccc(CCN2CC[C@@H](Oc3nc4ccccc4n3Cc3ccc(F)cc3)[C@H](C)C2)cc1` (relative stereo) [Compound 268], the ED50 turned out to be 0.16 mg/kg.
The value for `Cc1nc2n(c(=O)c1CCN1CCC(Cc3nc4cccnc4n3Cc3ccccn3)CC1)CCCC2` [Compound 258] was 0.08 mg/kg; that for `CC(C)NC(=O)CN1CCC(Cc2nc3ccccc3n2Cc2ccc(F)cc2)CC1` [Compound 134] was 0.04 mg/kg.
For the compound `CCOC(=O)NCCN1CCC(Sc2nc3ccccc3n2Cc2ccc(F)cc2)CC1` [Compound 243, ethyl [2-[4-[[1-[(4-fluorophenyl)methyl]-1H-benzimidazol-2-yl]-thio]-1-piperidinyl)ethyl]carbamate], the ED50 came out at 0.04 mg/kg.
Take `Fc1ccc(Cn2c(CC3CCN(CCSc4nc5cnccc5s4)CC3)nc3ccccc32)cc1` [Compound 388, 2-[[2-[4-[[1-[(4-fluorophenyl)methyl]-1H-benzimidazol-2-yl]methyl]-1-piperidinyl]ethyl]thio]thiazolo[4,5-c]pyridine]: the ED50 was 0.16 mg/kg.
With `CCNC(=O)NCCN1CCC(Cc2nc3cccnc3n2Cc2ccc(F)cc2)CC1` [Compound 429, N-ethyl-N'-[2-[4-[[3-[(4-fluorophenyl)methyl]-3H-imidazo[4,5-b]pyridin-2-yl]-methyl]-1-piperidinyl]ethyl]urea], the ED50 came to 0.02 mg/kg.
Next, `COc1ccc(CCN2CCC(Cc3nc4ccccc4n3Cc3cscn3)CC2)cc1` [Compound 245, 2-[[1-[2-(4-methoxyphenyl)ethyl]-4-piperidinyl]methyl]-1-(4-thiazolylmethyl)-1H-benzimidazole]: 0.02 mg/kg; `OCCN1CCC(Sc2nc3ccccc3n2Cc2ccc(F)cc2)CC1` [Compound 104, 4-[[1-[(4-fluorophenyl)-methyl]-1H-benzimidazol-2-yl]thio]-1-piperidineethanol]: 0.08 mg/kg; `c1ccc(Cn2c(CC3CCN(CCNc4ncccn4)CC3)nc3cccnc32)nc1` [Compound 340]: 0.08 mg/kg.
As for `O=c1oc2ccccc2cc1CCN1CCC(Cc2nc3ccccc3n2Cc2ccco2)CC1` [Compound 165], the ED50 was determined as 0.02 mg/kg.
As to `Fc1ccc(Cn2c(CC3CCN(Cc4ccccc4)CC3)nc3cccnc32)cc1` [Compound 8, 3-[(4-fluorophenyl)methyl]-2-[[1-(phenylmethyl)-4-piperidinyl]-methyl]-3H-imidazo[4,5-b]pyridine], the ED50 was 0.04 mg/kg.
As for `Cc1nc2n(c(=O)c1CCN1CCC(Cc3nc4cccnc4n3Cc3ccc(F)cc3)CC1)CCCS2` [Compound 205, 7-[2-[4-[[3-[(4-fluorophenyl)methyl]-3H-imidazo[4,5-b]pyridin-2-yl]methyl]-1-piperidinyl]ethyl]-3,4-dihydro-8-methyl-2H,6H-pyrimido[2,1-b][1,3]thiazin-6-one], the ED50 worked out at 0.08 mg/kg.
For `OCCN1CCC(Cc2nc3cccnc3n2Cc2ccc(F)cc2)CC1` [Compound 115, 4-[[3-[(4-fluorophenyl)methyl]-3H-imidazo[4,5-b]pyridin-2-yl]methyl]-1-piperidineethanol], the ED50 was found to be 0.16 mg/kg.
As for `Fc1ccc(Cn2c(CC3CCN(Cc4ccccc4)CC3)nc3ccncc32)cc1` [Compound 25, 3-[(4-fluorophenyl)methyl]-2-[[1-(phenylmethyl)-4-piperidinyl]-methyl]-3H-imidazo[4,5-c]pyridine], the ED50 amounted to 0.16 mg/kg.
Turning to `Fc1ccc(Cn2c(CC3CCN(CCc4cccs4)CC3)nc3cccnc32)cc1` [Compound 117], the ED50 was 0.01 mg/kg.
As to `NC(=O)CN1CCC(Cc2nc3ccccc3n2Cc2ccc(F)cc2)CC1` [Compound 149, 4-[[1-[(4-fluorophenyl)methyl]-1H-benzimidazol-2-yl]methyl]-1-piperidineacetamide], the ED50 came to 0.04 mg/kg.
`Nc1ccccc1C(=O)NCCN1CCC(Cc2nc3ccccc3n2Cc2ccco2)CC1` [Compound 466, 2-amino-N-[2-[4-[[1-(2-furanylmethyl)-1H-benzimidazol-2-yl]methyl]-1-piperidinyl]ethyl]benzamide]: the ED50 stood at 0.02 mg/kg.
For the compound `O=c1[nH]c2ccccc2n1CCCN1CCC(Cc2nc3cccnc3n2Cc2ccco2)CC1` [Compound 152], the ED50 is 0.04 mg/kg.
For `S=C=NCCN1CCC(Cc2nc3cccnc3n2Cc2cccs2)CC1` [Compound 402], the ED50 turned out to be 0.04 mg/kg.
Take `Fc1ccc(Cn2c(OC3CCN(CCNc4nccs4)CC3)nc3ccccc32)cc1` [Compound 355]: the ED50 was 0.08 mg/kg.
Next, `c1cnc(NCCN2CCC(Cc3nc4ccccc4n3Cc3cscn3)CC2)nc1` [Compound 338]: 0.02 mg/kg; `C=CCN1CCC(Cc2nc3ccccc3n2Cc2ccc(F)cc2)CC1` [Compound 144, 1-[(4-fluorophenyl)methyl]-2-[[1-(2-propenyl)-4-piperidinyl]methyl]-1H-benzimidazole]: 0.04 mg/kg.
As to `Cn1ccnc1NCCN1CCC(Cc2nc3ccccc3n2Cc2ccc(F)cc2)CC1` [Compound 452, 4-[[1-[(4-fluorophenyl)methyl]-1H-benzimidazol-2-yl]methyl]-N-(1-methyl-1H-imidazol-2-yl)-1-piperidineethanamine], the ED50 was 0.16 mg/kg.
`Cc1nc2n(c(=O)c1CCN1CCC(Cc3nc4ccccc4n3Cc3ccc(F)cc3)CC1)CCCS2` [Compound 158]: the ED50 worked out at 0.04 mg/kg.
As for `c1ccc(Cn2c(CC3CCNCC3)nc3ccccc32)cc1` [Compound 40, 1-(phenylmethyl)-2-(4-piperidinylmethyl)-1H-benzimidazole], the ED50 is 0.08 mg/kg.
Regarding `Fc1ccc(Cn2c(CC3CCN(CCSc4ccccc4)CC3)nc3ccccc32)cc1` [Compound 129], the ED50 worked out at 0.16 mg/kg.
